In ChEMBL document CHEMBL5532691, “Anti-cancer activity and mechanism of flurbiprofen organoselenium compound RY-1-92 in non-small cell lung cancer” (RSC Med Chem, 2024):

Test system: BEAS-2B
Assay: Cytotoxicity against human BEAS-2B cells assessed as reduction in cell viability at 25 uM measured after 48 hrs by MTT assay
Format: toxicity, cell-based

O=c1[nH]cc(F)c(=O)[nH]1 [FLUOROURACIL]
Activity: Toxic
